From PMC6522510 (Nature Communications, 2019)
Where two headings read alike, the source gives them in different places.

How the values were obtained:
CHRF288-11 [1] = assay: Secondary dose-response HTS, Cell Titer Glo; assay type: cell-based, human; conditions: secondary high-throughput screen, CHRF288-11; for EC50: read-out: average effective concentration, CHRF288-11
CMK = assay: Secondary dose-response HTS, Cell Titer Glo; assay type: cell-based, human; conditions: CMK; for EC50: Homo sapiens, read-out: average effective concentration, CMK
CMS = assay: Secondary dose-response HTS, Cell Titer Glo; assay type: cell-based, human; conditions: for EC50: read-out: average effective concentration, CMS
M07e = assay: Secondary dose-response HTS, Cell Titer Glo; assay type: cell-based, human; conditions: secondary high-throughput screen; for EC50: read-out: average effective concentration, M07e
ML2 = assay: Secondary dose-response HTS, Cell Titer Glo; assay type: cell-based, human; conditions: secondary high-throughput screen, ML-2; for EC50: read-out: average effective concentration, ML-2
U937 [2] = assay: Secondary dose-response HTS, Cell Titer Glo; assay type: cell-based, human; conditions: secondary high-throughput screen, U937; for EC50: read-out: average effective concentration, U937
MOLM-13 [3] = assay: cells; set-up: species or system AML cell lines (8); Secondary HTS, 10-point dose-response in triplicate, Cell Titer Glo viability, four-parameter fit EC50; conditions: Homo sapiens, MOLM-13, 72 h, read-out: MOLM-13
MV4-11 [4] = assay: cells; set-up: species or system AML cell lines (8); Secondary HTS, 10-point dose-response in triplicate, Cell Titer Glo viability, four-parameter fit EC50; conditions: Homo sapiens, MV4-11, 72 h, read-out: MV4-11
MOLM-13 [5] = assay: Secondary dose-response HTS, Cell Titer Glo; assay type: cell-based, human; conditions: secondary high-throughput screen, MOLM-13; for EC50: read-out: average effective concentration, MOLM-13
MV4-11 [6] = assay: Secondary dose-response HTS, Cell Titer Glo; assay type: cell-based, human; conditions: secondary high-throughput screen, MV4-11; for EC50: read-out: average effective concentration, MV4-11
U937 [7] = assay: cells; set-up: species or system AML cell lines (8); Secondary HTS, 10-point dose-response in triplicate, Cell Titer Glo viability, four-parameter fit EC50; conditions: Homo sapiens, U-937, 72 h, read-out: U937
CHRF288-11 [8] = assay: cells; set-up: species or system AML cell lines (8); Secondary HTS, 10-point dose-response in triplicate, Cell Titer Glo viability, four-parameter fit EC50; conditions: 72 h, read-out: CHRF288-11
[9] = secondary high-throughput screen
[10] = Homo sapiens, HTS, secondary high-throughput screen, CMS
[11] = secondary high-throughput screen, CMS

## Nc1ccccc1NC(=O)c1ccc(CNc2nccc(-c3cccnc3)n2)cc1 [MOCETINOSTAT]
CHRF288-11 [1]; Homo sapiens, HTS
  EC50: 170 nM
CMK; [9]
  EC50: 39 nM
CMS; [10]
  EC50: 120 nM
M07e; Homo sapiens, M-07e, M07e
  EC50: 140 nM
ML2; Homo sapiens
  EC50: 410 nM
U937 [2]; Homo sapiens, U-937
  EC50: 1100 nM
MOLM-13 [3]
  EC50: > 10000 nM
MV4-11 [4]
  EC50: > 10000 nM

## CC(C)C[C@H](NC(=O)[C@@H](NC(=O)c1cccc(-c2ccccc2)n1)[C@@H](C)O)B(O)O [DELANZOMIB]
CHRF288-11 [1]; Homo sapiens, HTS
  EC50: 2.7 nM
CMK; [9]
  EC50: 1.5 nM
CMS; [10]
  EC50: 1 nM
M07e; Homo sapiens, M-07e, M07e
  EC50: 1 nM
ML2; Homo sapiens
  EC50: 1 nM
U937 [2]; Homo sapiens, U-937
  EC50: 2.8 nM
MOLM-13 [3]
  EC50: 2.1 nM
MV4-11 [4]
  EC50: > 10000 nM

## CCCCc1nc2cc(/C=C/C(=O)NO)ccc2n1CCN(CC)CC [PRACINOSTAT]
CHRF288-11 [1]; Homo sapiens, HTS
  EC50: 250 nM
CMK
  EC50: 70 nM
CMS; Homo sapiens, HTS
  EC50: 140 nM
M07e; Homo sapiens, M-07e, M07e
  EC50: 130 nM
ML2; Homo sapiens
  EC50: 330 nM
U937 [2]; Homo sapiens, U-937
  EC50: 220 nM
MOLM-13 [3]
  EC50: > 10000 nM
MV4-11 [4]
  EC50: > 10000 nM

## Nc1ccccc1NC(=O)c1ccc(CNC(=O)OCc2cccnc2)cc1 [ENTINOSTAT]
CHRF288-11 [1]; Homo sapiens, HTS
  EC50: 4100 nM
CMK; [9]
  EC50: 110 nM
CMS; [10]
  EC50: 760 nM
M07e; Homo sapiens, M-07e, M07e
  EC50: 1000 nM
ML2; Homo sapiens
  EC50: 6200 nM
U937 [2]; Homo sapiens, U-937
  EC50: 5600 nM
MOLM-13 [3]
  EC50: > 10000 nM
MV4-11 [4]
  EC50: > 10000 nM

## O=C1NC(=O)[C@@H](c2cn3c4c(cccc24)CCC3)[C@@H]1c1c[nH]c2ccccc12 [TIVANTINIB]
CHRF288-11 [1]; Homo sapiens, HTS
  EC50: 3600 nM
CMK; [9]
  EC50: 75 nM
CMS; [10]
  EC50: 1500 nM
M07e; Homo sapiens, M-07e, M07e
  EC50: 770 nM
ML2; Homo sapiens
  EC50: 55 nM
U937 [2]; Homo sapiens, U-937
  EC50: 61 nM
MOLM-13 [3]
  EC50: > 10000 nM
MV4-11 [4]
  EC50: > 10000 nM

## Oc1ccc(C2=Cc3ccc(O)cc3OC2)cc1 [IDRONOXIL]
CHRF288-11 [1]; Homo sapiens, HTS
  EC50: 180 nM
CMK; [9]
  EC50: 88 nM
CMS; [10]
  EC50: 440 nM
M07e; Homo sapiens, M-07e, […]
  EC50: 1300 nM
ML2; Homo sapiens
  EC50: 130 nM
U937 [2]; Homo sapiens, U-937
  EC50: 1900 nM
MOLM-13 [3]
  EC50: > 10000 nM
MV4-11 [4]
  EC50: > 10000 nM

## CN(C)Cc1c(C(=O)NCCOc2ccc(C(=O)NO)cc2)oc2ccccc12 [ABEXINOSTAT]
CHRF288-11 [1]; Homo sapiens, HTS
  EC50: 37 nM
CMK; [9]
  EC50: 12 nM
CMS; [10]
  EC50: 34 nM
M07e; Homo sapiens, M-07e, M07e
  EC50: 26 nM
ML2; Homo sapiens
  EC50: 93 nM
U937 [2]; Homo sapiens, U-937
  EC50: 30 nM
MOLM-13 [3]
  EC50: > 10000 nM
MV4-11 [4]
  EC50: > 10000 nM

## CC(C)[C@H](C(=O)Nc1ccc(C(=O)NO)cc1)c1ccccc1 [(S)-HDAC-42]
CHRF288-11 [1]; Homo sapiens, HTS
  EC50: 260 nM
CMK
  EC50: 38 nM
CMS; Homo sapiens, HTS
  EC50: 220 nM
M07e; Homo sapiens, M-07e, M07e
  EC50: 160 nM
ML2; Homo sapiens
  EC50: 330 nM
U937 [2]; Homo sapiens, U-937
  EC50: 220 nM
MOLM-13 [3]
  EC50: > 10000 nM
MV4-11 [4]
  EC50: > 10000 nM

## O=c1[nH]c(=O)n([C@H]2C[C@H](O)[C@@H](CO)O2)cc1F [FLOXURIDINE]
MOLM-13 [5]; Homo sapiens
  EC50: 23 nM
MV4-11 [6]; Homo sapiens
  EC50: 130 nM
CHRF288-11 [1]; Homo sapiens, HTS
  EC50: 67 nM
CMK; [9]
  EC50: 980 nM
CMS; [10]
  EC50: 7900 nM
M07e; Homo sapiens, M-07e, M07e
  EC50: 8200 nM
ML2; Homo sapiens
  EC50: 21 nM
U937 [7]
  EC50: > 10000 nM

## Cc1cc(I)ccc1Nc1c(C(=O)NOCC2CC2)cc(F)c(F)c1F [PD 198306]
MOLM-13 [5]
  average effective concentration, MOLM-13: Inactive
MV4-11 [6]
  average effective concentration, MV4-11: Inactive
CHRF288-11 [1]
  average effective concentration, CHRF288-11: Inactive
CMK; [9]
  average effective concentration, CMK: Inactive
CMS; [11]
  average effective concentration, CMS: Inactive
M07e; M07e
  average effective concentration, M07e: Inactive
ML2
  average effective concentration, ML-2: Inactive
U937 [2]
  average effective concentration, U937: Inactive

## COc1ncc(-c2ccc3nccc(-c4ccnnc4)c3c2)cc1NS(=O)(=O)c1ccc(F)cc1F [GSK-2126458]
MOLM-13 [5]; Homo sapiens
  EC50: 940 nM
MV4-11 [6]; Homo sapiens
  EC50: 1 nM
CHRF288-11 [1]; Homo sapiens, HTS
  EC50: 1300 nM
CMK
  EC50: 1 nM
CMS; Homo sapiens, HTS
  EC50: 40 nM
M07e; Homo sapiens, M-07e, M07e
  EC50: 5600 nM
ML2; Homo sapiens
  EC50: 1 nM
U937 [2]; Homo sapiens, U-937
  EC50: 1 nM

## CN(C)c1ccc2nc3ccc(=[N+](C)C)cc-3sc2c1 [METHYLENE BLUE]
MOLM-13 [5]; Homo sapiens
  EC50: 2000 nM
MV4-11 [6]; Homo sapiens
  EC50: 1300 nM
CHRF288-11 [1]; Homo sapiens, HTS
  EC50: 6200 nM
CMK; [9]
  EC50: 3400 nM
CMS; [10]
  EC50: > 10000 nM
M07e; Homo sapiens, M-07e, M07e
  EC50: > 10000 nM
ML2; Homo sapiens
  EC50: 5900 nM
U937 [2]; Homo sapiens, U-937
  EC50: 10000 nM

## O=C(Nc1cc(Cl)cc2c1[nH]c1cnccc12)c1cccnc1 [PS-1145]
MOLM-13 [5]
  average effective concentration, MOLM-13: Inactive
MV4-11 [6]
  average effective concentration, MV4-11: Inactive
CHRF288-11 [1]
  average effective concentration, CHRF288-11: Inactive
CMK; [9]
  average effective concentration, CMK: Inactive
CMS; [11]
  average effective concentration, CMS: Inactive
M07e; M07e
  average effective concentration, M07e: Inactive
ML2
  average effective concentration, ML-2: Inactive
U937 [2]
  average effective concentration, U937: Inactive

## CC(C)(CCc1ccccc1)C(=O)Nc1ccc(C(=O)NO)cc1 [OSU-HDAC-44]
MOLM-13 [5]
  EC50: 1300 nM
MV4-11 [6]
  EC50: 290 nM
CHRF288-11 [1]
  EC50: 1500 nM
CMK; [9]
  average effective concentration, CMK: Inactive
CMS; [11]
  EC50: 480 nM
M07e; M07e
  EC50: 350 nM
ML2
  EC50: 1400 nM
U937 [2]
  EC50: 490 nM

## Nc1[nH]nc2nnc(-c3c(-c4ccccc4)nn4ccccc34)cc12 [FR 180204]
MOLM-13 [5]
  average effective concentration, MOLM-13: Inactive
MV4-11 [6]
  average effective concentration, MV4-11: Inactive
CHRF288-11 [1]
  average effective concentration, CHRF288-11: Inactive
CMK; [9]
  average effective concentration, CMK: Inactive
CMS; [11]
  average effective concentration, CMS: Inactive
M07e; M07e
  average effective concentration, M07e: Inactive
ML2
  average effective concentration, ML-2: Inactive
U937 [2]
  average effective concentration, U937: Inactive

## COc1cc(NCc2ccc3nc(N)nc(N)c3c2C)cc(OC)c1OC [TRIMETREXATE]
MOLM-13 [5]; Homo sapiens
  EC50: 170 nM
MV4-11 [6]; Homo sapiens
  EC50: 1800 nM
CHRF288-11 [1]; Homo sapiens, HTS
  EC50: 7600 nM
CMK; [9]
  EC50: 4200 nM
CMS; [10]
  EC50: 1700 nM
M07e; Homo sapiens, M-07e, M07e
  EC50: 10000 nM
ML2; Homo sapiens
  EC50: 2900 nM
U937 [2]; Homo sapiens, U-937
  EC50: > 10000 nM

## CCN(CC)CCCC(C)Nc1c2ccc(Cl)cc2nc2ccc(OC)cc12 (stereo not drawn) [QUINACRINE]
MOLM-13 [5]; Homo sapiens
  EC50: 2900 nM
MV4-11 [6]; Homo sapiens
  EC50: 3800 nM
CMK; [9]
  EC50: 7700 nM
CMS; [10]
  EC50: 5500 nM
M07e; Homo sapiens, M-07e, M07e
  EC50: 7700 nM
ML2; Homo sapiens
  EC50: > 10000 nM
U937 [2]; Homo sapiens, U-937
  EC50: 3900 nM
CHRF288-11 [8]
  EC50: > 10000 nM

## COCCCn1c(N)c(C(=O)NC2CCCC2)c2nc3ccccc3nc21 [CAY10591]
MOLM-13 [5]
  average effective concentration, MOLM-13: Inactive
MV4-11 [6]
  average effective concentration, MV4-11: Inactive
CHRF288-11 [1]
  average effective concentration, CHRF288-11: Inactive
CMK; [9]
  average effective concentration, CMK: Inactive
CMS; [11]
  average effective concentration, CMS: Inactive
M07e; M07e
  average effective concentration, M07e: Inactive
ML2
  average effective concentration, ML-2: Inactive
U937 [2]
  average effective concentration, U937: Inactive
